Source: patent US9603367B2, “Pesticidal mixtures including spiroheterocyclic pyrrolidine diones” (priority 2012, dated 2017)

Columns and labels:
[1] = system: Tetranychus urticae (Two-Spotted Spider Mite); assay: Tetranychus urticae (Two-Spotted Spider Mite) feeding/contact activity, preventive; sprayed bean leaf discs; assay type: in vivo; conditions: Pirimicarb alone
Description: (§1) A synergistic effect exists whenever the action of an active ingredient combination is greater than the sum of the actions of the individual components.
(§2) The action to be expected E for a given active ingredient combination obeys the so-called COLBY formula and can be calculated as follows (COLBY, S. R. “Calculating synergistic and antagonistic responses of herbicide combination”. Weeds, Vol. 15, pages 20-22; 1967): […]
(§3) ppm=milligrams of active ingredient (=a.i.) per liter of spray mixture
(§4) X=% action by active ingredient A) using p ppm of active ingredient
(§5) Y=% action by active ingredient B) using q ppm of active ingredient.
(§6) According to COLBY, the expected (additive) action of active ingredients A)+B) using p+q ppm of active ingredient is If the action actually observed (O) is greater than the expected action (E), then the action of the combination is super-additive, i.e. there is a synergistic effect. In mathematical terms the synergism factor SF corresponds to O/E. In the agricultural practice an SF of ≧1.2 indicates significant improvement over the purely complementary addition of activities (expected activity), while an SF of ≦0.9 in the practical application routine signals a loss of activity compared to the expected activity.
Tetranychus urticae (Two-Spotted Spider Mite): feeding/contact activity, preventive
Bean leaf discs on agar in 24-well microtiter plates were sprayed with the DMSO test solutions of certain Mixtures (as provided by Table 45). After drying, the leaf discs were infested with mite populations of mixed ages. 8 days later, discs were checked for mortality against mobile stages.

[2] = system: Myzus persicae (Green Peach Aphid); assay: Myzus persicae (Green Peach Aphid) feeding/residual contact activity, preventive; sprayed sunflower leaf discs; assay type: in vivo; conditions: Pirimicarb alone
Description: as §1, §2, §3, §4, §5, §6
Myzus persicae (Green Peach Aphid): feeding/residual contact activity, preventive
Sunflower leaf discs were placed on agar in a 24-well microtiter plate and sprayed with the DMSO test solutions of Mixtures (as provided by Table 45). After drying, the leaf discs were infested with an aphid population of mixed ages. After an incubation period of 6 DAT (days after treatment), samples were checked for mortality.

Cc1nc(N(C)C)nc(OC(=O)N(C)C)c1C [Pirimicarb]
AVERAGE DEAD IN % AFTER 8 DAYS, Pirimicarb ([1]; 25 PPM AI, mobile stages): 0%
AVERAGE DEAD IN % AFTER 8 DAYS, Pirimicarb ([1]; 50 PPM AI, mobile stages): 0%
AVERAGE DEAD IN % AFTER 8 DAYS, Pirimicarb ([1]; 100 PPM AI, mobile stages): 0%
AVERAGE DEAD IN % AFTER 8 DAYS, Pirimicarb ([1]; 200 PPM AI, mobile stages (Table 48)): 0%
AVERAGE DEAD IN % AFTER 8 DAYS, Pirimicarb ([1]; 200 PPM AI, mobile stages (Table 49)): 0%
AVERAGE DEAD IN % AFTER 8 DAYS, Pirimicarb ([1]; 400 PPM AI, mobile stages): 0%
AVERAGE DEAD IN % AFTER 6 DAYS, Pirimicarb ([2]; 12.5 PPM AI, 6 DAT): 0%
AVERAGE DEAD IN % AFTER 6 DAYS, Pirimicarb ([2]; 25 PPM AI, 6 DAT): 17.5%
AVERAGE DEAD IN % AFTER 6 DAYS, Pirimicarb ([2]; 25 PPM AI, 6 DAT (Table 47)): 17.5%
AVERAGE DEAD IN % AFTER 6 DAYS, Pirimicarb ([2]; 50 PPM AI, 6 DAT): 65%
AVERAGE DEAD IN % AFTER 6 DAYS, Pirimicarb ([2]; 100 PPM AI, 6 DAT): 87.5%
AVERAGE DEAD IN % AFTER 6 DAYS, Pirimicarb ([2]; 200 PPM AI, 6 DAT): 100%
